Results: ChEMBL document CHEMBL5042500 (J Med Chem, 2022)
Values after ≈ are worked out from the molar mass of the structure shown.

What was measured:
[1] = molecular target: Ribosomal protein S6 kinase alpha-1 (Homo sapiens) (UniProt Q15418); assay: Inhibition of RSK1 kinase (unknown origin) at 0.1 uM
[2] = Solubility of the compound in FeSSIF at pH 5.0; format: physicochemical
Cytochrome P450 3A4 [3] = molecular target: T1, Cytochrome P450 3A4 (Homo sapiens, UniProt P08684); assay: Inhibition of CYP3A4 in human liver microsomes using testosterone as substrate incubated for 30 mins by LC-MS/MS analysis; format: ADME
T1 sequence (P08684 whole entry): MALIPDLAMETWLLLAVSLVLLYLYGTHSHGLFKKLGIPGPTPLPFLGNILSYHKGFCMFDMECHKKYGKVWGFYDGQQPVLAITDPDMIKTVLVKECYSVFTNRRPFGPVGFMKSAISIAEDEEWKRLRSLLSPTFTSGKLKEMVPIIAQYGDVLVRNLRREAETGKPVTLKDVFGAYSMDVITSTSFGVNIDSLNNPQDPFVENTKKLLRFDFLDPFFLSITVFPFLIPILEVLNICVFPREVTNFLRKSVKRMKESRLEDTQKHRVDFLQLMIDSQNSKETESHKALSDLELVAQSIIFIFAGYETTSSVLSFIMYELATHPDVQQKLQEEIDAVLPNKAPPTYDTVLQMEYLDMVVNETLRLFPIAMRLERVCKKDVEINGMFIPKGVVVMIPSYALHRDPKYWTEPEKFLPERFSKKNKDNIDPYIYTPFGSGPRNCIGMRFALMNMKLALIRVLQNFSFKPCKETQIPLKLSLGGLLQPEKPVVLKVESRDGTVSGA

[4] = Metabolic stability in CD1 mouse liver microsomes assessed as compound degradation in presence of NADPH measured after 20 mins; format: ADME, Microsome; details: read-out: Drug degradation
[5] = molecular target: T2, Serine/threonine-protein kinase Sgk1 (Homo sapiens, UniProt O00141); assay: Inhibition of recombinant human SGK1 expressed in baculovirus expression system using 5-carboxyfluorescein -RPRAATF-NH2 as substrate preincubated for 30 mins followed by substrate addition in presence of 10 uM ATP and measured after 60 mins by microfluidics assay
T2 sequence (O00141 whole entry): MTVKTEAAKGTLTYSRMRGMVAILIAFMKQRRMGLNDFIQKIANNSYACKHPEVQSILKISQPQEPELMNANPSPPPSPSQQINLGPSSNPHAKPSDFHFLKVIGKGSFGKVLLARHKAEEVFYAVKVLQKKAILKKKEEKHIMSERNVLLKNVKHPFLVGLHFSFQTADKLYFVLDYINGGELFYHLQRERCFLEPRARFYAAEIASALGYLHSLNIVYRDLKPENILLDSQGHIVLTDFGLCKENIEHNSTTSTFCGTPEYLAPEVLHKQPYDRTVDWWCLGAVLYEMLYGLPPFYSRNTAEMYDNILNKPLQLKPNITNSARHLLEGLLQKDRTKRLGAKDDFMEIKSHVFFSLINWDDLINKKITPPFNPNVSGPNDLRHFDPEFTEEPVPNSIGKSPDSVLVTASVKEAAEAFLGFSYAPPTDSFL

[6] = molecular target: T2, Serine/threonine-protein kinase Sgk1; assay: Inhibition of recombinant human SGK1 expressed in baculovirus expression system using 5-carboxyfluorescein -RPRAATF-NH2 as substrate preincubated for 30 mins followed by substrate addition in presence of 500 uM ATP and measured after 60 mins by microfluidics assay
[7] = molecular target: T3, Serine/threonine-protein kinase Sgk1 (Mus musculus, UniProt Q9WVC6); assay: Inhibition of mouse SGK1 in presence 500 uM presence of ATP
T3 sequence (Q9WVC6 whole entry): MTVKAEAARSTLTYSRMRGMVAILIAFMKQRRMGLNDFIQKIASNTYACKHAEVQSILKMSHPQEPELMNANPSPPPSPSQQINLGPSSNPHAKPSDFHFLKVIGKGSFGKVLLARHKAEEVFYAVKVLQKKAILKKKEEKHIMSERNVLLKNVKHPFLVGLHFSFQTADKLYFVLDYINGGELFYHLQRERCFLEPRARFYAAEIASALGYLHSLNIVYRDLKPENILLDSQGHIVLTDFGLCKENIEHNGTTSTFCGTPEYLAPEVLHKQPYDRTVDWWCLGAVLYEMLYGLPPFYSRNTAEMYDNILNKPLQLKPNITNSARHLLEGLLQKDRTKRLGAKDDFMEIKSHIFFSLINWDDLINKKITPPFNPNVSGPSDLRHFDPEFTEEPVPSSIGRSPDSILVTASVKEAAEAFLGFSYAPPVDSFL

[8] = Inhibition of rat SGK1 in presence 500 uM presence of ATP
[9] = Distribution coefficient, logD of compound at pH 7.4 by chromatographic analysis; format: physicochemical; details: octanol/water
[10] = Aqueous solubility of the compound at pH 7.4; format: physicochemical
[11] = Effect on chondrocyte hypertrophic differentiation mouse ATDC-5 cells assessed as inhibition of […] gene expression incubated for 2 weeks followed by compound added and every 3 days medium is changed measured after 2 weeks by RT-qPCR analysis; format: functional, cell-based
[12] = Permeability in human Caco2 cells at 20 uM incubated for 120 mins by ESI-MS/MS analysis; format: ADME, cell-based; details: Caco-2, read-out: permeability
[13] = Chemical stability of the compound at pH 7.4 measured after 24 hrs; format: physicochemical; details: buffer, read-out: Stability
[14] = Metabolic stability in human liver microsomes assessed as compound degradation in presence of NADPH measured after 20 mins; format: ADME, Microsome; details: read-out: Drug degradation
[15] = Metabolic stability in Sprague-Dawley rat liver microsomes assessed as compound degradation in presence of NADPH measured after 20 mins; format: ADME, Microsome; details: read-out: Drug degradation
[16] = Intrinsic clearance in human hepatocytes assessed per 10^-6 cells; format: ADME, cell-based, Hepatocyte
Cytochrome P450 3A4 [17] = molecular target: T1, Cytochrome P450 3A4; assay: Inhibition of CYP3A4 in human liver microsomes using midazolam as substrate incubated for 10 mins by LC-MS/MS analysis; format: ADME
CYP3A4 = CYP3A4 (Homo sapiens, UniProt P08684); assay: Inhibition of CYP3A4 in human liver microsomes by measuring maximum efficacy; format: ADME
CYP3A4, sequence (P08684 whole entry): as the sequence (P08684 whole entry) above

hERG (KCNH2) [18] = molecular target: T4, hERG (KCNH2) (Homo sapiens, UniProt Q12809); assay: Inhibition of human ERG at 1 uM relative to control; format: toxicity
T4 sequence (Q12809 whole entry): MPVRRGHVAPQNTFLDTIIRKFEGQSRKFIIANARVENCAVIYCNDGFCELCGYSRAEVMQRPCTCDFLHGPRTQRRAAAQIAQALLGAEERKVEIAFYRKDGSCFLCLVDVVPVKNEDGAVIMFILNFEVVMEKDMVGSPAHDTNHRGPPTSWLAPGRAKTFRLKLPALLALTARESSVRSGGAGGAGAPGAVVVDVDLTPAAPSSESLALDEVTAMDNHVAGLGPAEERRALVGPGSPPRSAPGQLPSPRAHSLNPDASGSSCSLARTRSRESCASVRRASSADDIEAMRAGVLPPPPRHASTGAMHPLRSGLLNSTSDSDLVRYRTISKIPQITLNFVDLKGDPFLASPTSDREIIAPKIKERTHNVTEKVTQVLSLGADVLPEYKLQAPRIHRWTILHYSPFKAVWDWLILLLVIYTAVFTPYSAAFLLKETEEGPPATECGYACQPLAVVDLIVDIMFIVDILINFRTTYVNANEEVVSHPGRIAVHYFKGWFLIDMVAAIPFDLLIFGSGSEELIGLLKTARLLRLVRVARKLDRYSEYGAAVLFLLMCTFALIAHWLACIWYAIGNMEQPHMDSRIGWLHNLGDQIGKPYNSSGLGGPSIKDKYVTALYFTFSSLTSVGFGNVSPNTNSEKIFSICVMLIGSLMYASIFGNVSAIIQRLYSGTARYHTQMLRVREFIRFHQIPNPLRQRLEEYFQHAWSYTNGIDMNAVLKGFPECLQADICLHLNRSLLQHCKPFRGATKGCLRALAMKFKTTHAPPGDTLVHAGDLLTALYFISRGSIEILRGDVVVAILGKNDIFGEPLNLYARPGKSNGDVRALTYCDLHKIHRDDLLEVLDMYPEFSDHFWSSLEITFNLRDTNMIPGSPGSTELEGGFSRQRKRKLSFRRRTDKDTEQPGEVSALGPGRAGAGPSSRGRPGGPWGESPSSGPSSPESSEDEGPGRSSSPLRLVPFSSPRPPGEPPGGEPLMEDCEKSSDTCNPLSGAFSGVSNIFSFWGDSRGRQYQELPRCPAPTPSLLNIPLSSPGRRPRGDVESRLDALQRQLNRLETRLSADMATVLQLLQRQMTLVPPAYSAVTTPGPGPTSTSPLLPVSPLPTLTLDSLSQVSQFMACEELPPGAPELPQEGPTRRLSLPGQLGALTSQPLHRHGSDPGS

hERG (KCNH2) [19] = molecular target: T4, hERG (KCNH2); assay: Inhibition of human ERG at 10 uM; format: toxicity
Homo sapiens = organism: Homo sapiens; assay: Inhibition of p70S6Kb kinase (unknown origin) at 0.1 uM
Salmonella typhimurium [20] = assay: Mutagenicity in Salmonella typhimurium […] in presence of S9 fraction by ames test; format: toxicity, organism-based; details: salmonella enterica subsp. enterica serovar typhimurium
Salmonella typhimurium [21] = assay: Mutagenicity in Salmonella typhimurium […] by ames test; format: toxicity, organism-based; details: salmonella enterica subsp. enterica serovar typhimurium
[22] = Cmax in Lewis rat plasma at 30 mg/kg, po measured after 8 hrs; format: ADME, organism-based; parameters: route oral, time 8 hrs, dose 30 mg/kg
[23] = Tmax in Lewis rat plasma at 30 mg/kg, po measured after 8 hrs; format: ADME, organism-based
[24] = AUC (0 to 24 hrs) in Lewis rat plasma at 30 mg/kg, po measured after 8 hrs; format: ADME, organism-based; parameters: route oral, dose 30 mg/kg, time 8 hrs
[25] = Cmax in Lewis rat femoral head cartilage at 30 mg/kg, po measured after 8 hrs; format: ADME, organism-based, Femur; parameters: route oral, time 8 hrs, dose 30 mg/kg
[26] = Tmax in Lewis rat femoral head cartilage at 30 mg/kg, po measured after 8 hrs; format: ADME, organism-based, Femur
[27] = AUC (0 to 24 hrs) in Lewis rat femoral head cartilage at 30 mg/kg, po measured after 8 hrs; format: ADME, organism-based, Femur; parameters: route oral, dose 30 mg/kg, time 8 hrs
[28] = Ratio of AUC(0 to 24 hrs) in femoral head to plasma in rat measured after 1 hrs; format: ADME, Bone/Plasma; details: read-out: Selectivity ratio
[29] = Ratio of AUC(0 to 24 hrs) in femoral head to plasma in rat measured after 24 hrs; format: ADME, Bone/Plasma; details: read-out: Selectivity ratio
[30] = Initial plasma concentration in C57BL/6 mouse at 3 mg/kg, iv; format: ADME, organism-based
[31] = Half life in C57BL/6 mouse plasma at 3 mg/kg, iv; format: ADME, organism-based
[32] = AUC (0 to 24 hrs) in C57BL/6 mouse at 3 mg/kg, iv; format: ADME, organism-based; parameters: time < 24 hr, route intravenous, dose 3 mg/kg; details: in vivo
[33] = Intrinsic clearance in C57BL/6 mouse at 3 mg/kg, iv; format: ADME, organism-based; details: in vivo
[34] = Volume of distribution at steady state in C57BL/6 mouse at 3 mg/kg, iv qd; format: ADME, organism-based; details: in vivo, read-out: Vdss
[35] = Cmax in C57BL/6 mouse plasma at 30 mg/kg, po measured after 8 hrs; format: ADME, organism-based; parameters: route oral, time 8 hrs, dose 30 mg/kg
[36] = Half life in C57BL/6 mouse plasma at 30 mg/kg, po measured after 8 hrs; format: ADME, organism-based
[37] = AUC (0 to 24 hrs) in C57BL/6 mouse at 30 mg/kg, po; format: ADME, organism-based; parameters: time < 24 hr, route oral, dose 30 mg/kg; details: in vivo
[38] = Tmax in C57BL/6 mouse plasma at 30 mg/kg, po; format: ADME, organism-based
[39] = Oral bioavailability in C57BL/6 mouse at 30 mg/kg; format: ADME, organism-based; details: in vivo

Ribosomal protein S6 kinase alpha-1 (Homo sapiens), sequence (Q15418 whole entry): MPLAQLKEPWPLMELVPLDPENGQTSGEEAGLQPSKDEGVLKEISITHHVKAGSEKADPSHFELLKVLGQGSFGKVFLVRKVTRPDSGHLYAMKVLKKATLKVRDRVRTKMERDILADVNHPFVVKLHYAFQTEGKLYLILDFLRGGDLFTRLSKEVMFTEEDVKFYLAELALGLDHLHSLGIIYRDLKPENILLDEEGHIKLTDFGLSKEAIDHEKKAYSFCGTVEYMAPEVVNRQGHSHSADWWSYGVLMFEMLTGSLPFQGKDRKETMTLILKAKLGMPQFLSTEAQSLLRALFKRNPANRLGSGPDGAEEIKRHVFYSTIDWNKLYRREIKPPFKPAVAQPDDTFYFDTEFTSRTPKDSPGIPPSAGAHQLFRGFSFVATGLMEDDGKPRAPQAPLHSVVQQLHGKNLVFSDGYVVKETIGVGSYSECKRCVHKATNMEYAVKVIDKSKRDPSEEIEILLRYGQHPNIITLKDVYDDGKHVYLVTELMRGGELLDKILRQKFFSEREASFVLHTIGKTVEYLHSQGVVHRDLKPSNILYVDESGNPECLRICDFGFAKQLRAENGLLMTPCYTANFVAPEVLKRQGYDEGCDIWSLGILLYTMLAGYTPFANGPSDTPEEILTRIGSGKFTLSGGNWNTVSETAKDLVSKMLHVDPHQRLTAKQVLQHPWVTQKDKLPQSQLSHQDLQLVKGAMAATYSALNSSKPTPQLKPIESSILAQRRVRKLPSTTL

Structure (SMILES): Cc1n[nH]c2nc(-c3ccc(NS(=O)(=O)c4cc(Cl)ccc4F)cc3)nc(OC3CCN(C(C)C)CC3)c12
- inhibition [1]: 64%
- solubility [2]: 281 µg/mL (≈ 503 µM)
- IC50 (Cytochrome P450 3A4 [3]): > 30000 nM
- metabolised at 20 min [4]: 15%
- IC50 [5]: 2 nM
- IC50 [6]: 3 nM
- IC50 [7]: 171 nM
- IC50 [8]: 224 nM
- chromatographic logD [9]: 1.3
- solubility [10]: < 1 µg/mL
- IC50 [11]: 70 nM
- Papp at 2 h, 20 µM [12]: 4.6 ×10⁻⁶ cm/s
- remaining at 24 h [13]: 100%
- metabolised at 20 min [14]: 9%
- metabolised at 20 min [15]: 12%
- CLH [16]: 0.042 mL/h
- IC50 (Cytochrome P450 3A4 [17]): > 30000 nM
- Emax (CYP3A4): 0%
- inhibition at 1 µM (hERG (KCNH2) [18]): 60%
- inhibition at 10 µM (hERG (KCNH2) [19]): 91%
- inhibition (Homo sapiens): 58%
- Activity (Salmonella typhimurium [20]): Non-Toxic
- Activity (Salmonella typhimurium [21]): Non-Toxic
- Cmax [22]: 4200 ng/mL
- Tmax [23]: 8 h
- AUC(0-t) at 8 h [24]: 60100 ng·h/mL
- Cmax [25]: 1200 ng/g
- Tmax [26]: 8 h
- AUC(0-t) at 8 h [27]: 16900 ng·h/mL
- Kp at 1 h [28]: 0.1
- Kp at 24 h [29]: 1.1
- C0 [30]: 2200 ng/mL
- half-life [31]: 2.1 h
- AUC(0-t) at 24 h [32]: 3200 ng·h/mL
- CL [33]: 17 mL/min/kg
- Vd [34]: 2.4 L/kg
- Cmax [35]: 2200 ng/mL
- half-life [36]: 4.8 h
- AUC(0-t) at 24 h [37]: 22800 ng·h/mL
- Tmax [38]: 3.3 h
- bioavailability [39]: 72%
